This is an account of results in US20120270917A1 (The Trustees of the University of Pennsylvania, priority 2009, published 2012).

Counter-ions that a name gives are not always drawn.

One assay has as its target AM2 (S31N) (Influenza A virus, UniProt P0DOF5, S31N). The class given is cell-based.
The next assay concerns the target AM2 (V27A) (Influenza A virus, UniProt P0DOF5, V27A). The class given is cell-based.

Consider `O=C1C2CC3CC1CC(C2)C3=O` [Compound 52, 2,6-diadamantone], for which, on AM2 (S31N), the “AM2 (S31N) % inhibition at 100 uM” value is given as 52 (0%).

For `N=C(NO)C12CC3CC(CC(C3)C1)C2` [Compound 46, N-hydroxyadamantanecarboximidamide], the “AM2 (S31N) % inhibition at 100 uM” value at AM2 (S31N) is recorded as 46 (0%). On to `O=[N+]([O-])C12CC3CC(CC(C3)C1)C2` [Compound 54, 1-nitroadamantane], for which the “AM2 (S31N) % inhibition at 100 uM” value at AM2 (S31N) is 54 (24%). For the molecule `CC1(N)C2CC3CC(C2)CC1C3` (centres unmarked) [Compound S5], the “AM2 (S31N) % inhibition at μM” value on AM2 (S31N) is 13.8%. Further, the “AM2 (V27A) % inhibition at μM” value on AM2 (V27A) was found to be 7.2%. On to `OC1(C(F)(F)F)C2CC3CC(C2)CC1C3` (centres unmarked) [Compound S8], for which the “AM2 (S31N) % inhibition at μM” value at AM2 (S31N) was 14.0%. Further, the “AM2 (V27A) % inhibition at μM” value on AM2 (V27A) worked out at 10.6%. Consider `Cl.NC1CCC2(CC1)C1CC3CC(C1)CC2C3` (centres unmarked) [Compound S15, (1r, 3r,5r,7r)-spiro[adamantane-2,1′-cyclohexan]-4′-aminium chloride], for which, on AM2 (V27A), the “V27A % of inhibition by 100 μM for 2 min” value is 94.5 ± 0.4%. Regarding `O=CC12CC3CC(CC(C3)C1)C2` [Compound 49, 1-adamantanecarboaldehyde], the “AM2 (S31N) % inhibition at 100 uM” value at AM2 (S31N) is reported as 49 (11%). For `C1NC2CC3CC1CC(C3)C2.Cl` [Compound 47, 4-Azatricyclo[4.3.1.1^3,8]undecan hydrochloride], the “AM2 (S31N) % inhibition at 100 uM” value at AM2 (S31N) is 47 (8%).

As for `O=[N+]([O-])C12CC3CC(CC(C3)C1)C2` [Compound S9], the “AM2 (S31N) % inhibition at μM” value on AM2 (S31N) is given as 24.0%. Besides, the “AM2 (V27A) % inhibition at μM” value at AM2 (V27A) is 19.9%.

For the molecule `CC(N)C12CC3CC(CC(C3)C1)C2` (centres unmarked) [Rimantadine, reference compound], the “S31N % of inhibition by 100 μM for 2 min” value at AM2 (S31N) was determined as 13.3 ± 1.8%. Take `O=C1C2CC3CC(C2)CC1C3` [Compound S13]: the “AM2 (S31N) % inhibition at μM” value at AM2 (S31N) came out at 0%. The “AM2 (V27A) % inhibition at μM” value on AM2 (V27A) was 0%. Regarding `N=C(N)NC12CC3CC(CC(C3)C1)C2` [Compound 39, 1-(adamantyl)guanidine], the “AM2 (S31N) % inhibition at 100 uM” value at AM2 (S31N) was 39 (0%). With `Cl.NC12CC3CCC(CC(C3)C1)C2` [Compound S2, tricyclo[4.3.1.13,8]undecan-1-aminium chloride], at AM2 (S31N), the “AM2 (S31N) % inhibition at μM” value is on record as 23.7%. In addition, on AM2 (V27A), the “AM2 (V27A) % inhibition at μM” value worked out at 13.6%.

For the molecule `Cc1nc[nH]c1/C=N/OC12CC3CC(CC(C3)C1)C2` [Compound 43, 5-Methyl-3H-imidazole-4-carbaldehyde O-adamantan-1-yl-oxime], the “AM2 (S31N) % inhibition at 100 uM” value on AM2 (S31N) is 43 (10%). In the case of `NC12CC3CC(CC(C3)C1)C2` [Amantadine, reference compound], the “S31N % of inhibition by 100 μM for 2 min” value at AM2 (S31N) is given as 34.7 ± 1.6%. On to `NC1(C(F)(F)F)C2CC3CC(C2)CC1C3` (centres unmarked) [Compound S6], for which the “AM2 (S31N) % inhibition at μM” value on AM2 (S31N) is on record as 13.7%. For the same molecule, the “AM2 (V27A) % inhibition at μM” value at AM2 (V27A) is 1.5%. In the case of `NC(=O)C12CC3CC(CC(C3)C1)C2` [Compound 48], the “AM2 (S31N) % inhibition at 100 uM” value at AM2 (S31N) is 48 (7.3%).

Regarding `NS(=O)(=O)NC1C2CC3CC(C2)CC1C3` (centres unmarked) [Compound S7], the “AM2 (S31N) % inhibition at μM” value at AM2 (S31N) is 3.8%. For `O=C1C2CC3CC(C2)CC1C3` [Compound 50], the “AM2 (S31N) % inhibition at 100 uM” value on AM2 (S31N) is 50 (0%). On to `Cl.Cl.N=C(N)NC(=N)NC12CC3CC(CC(C3)C1)C2` [Compound 41], for which the “AM2 (S31N) % inhibition at 100 uM” value on AM2 (S31N) is listed as 41 (0%). With `NC12CC3CC(C1)CC(O)(C3)C2` [Compound 38], on AM2 (S31N), the “AM2 (S31N) % inhibition at 100 uM” value is 38 (20%). Consider `CC(NC(=N)N)C12CC3CC(CC(C3)C1)C2` (centres unmarked) [Compound 40], for which the “AM2 (S31N) % inhibition at 100 uM” value at AM2 (S31N) is 40 (0%). As for `CC1(O)C2CC3CC(C2)CC1C3` (centres unmarked) [Compound S4], the “AM2 (S31N) % inhibition at μM” value at AM2 (S31N) is recorded as 10.6%. Besides, the “AM2 (V27A) % inhibition at μM” value at AM2 (V27A) worked out at 10.9%. As to `Cl.NC1C2CC3CC(C2)CC1C3` (centres unmarked) [Compound S14], the “AM2 (S31N) % inhibition at μM” value at AM2 (S31N) was found to be 18.2%. In addition, at AM2 (V27A), the “AM2 (V27A) % inhibition at μM” value is reported as 0%.

Regarding `Cl.NC12CCC3CC(CC(C3)C1)C2` [Compound S12], the “AM2 (S31N) % inhibition at μM” value at AM2 (S31N) is 32.8%. In addition, the “AM2 (V27A) % inhibition at μM” value at AM2 (V27A) stood at 13.3%. In the case of `O=[N+]([O-])C1C2CC3CC(C2)CC1C3` (centres unmarked) [Compound S3], the “AM2 (S31N) % inhibition at μM” value on AM2 (S31N) is 12.4%. Moreover, the “AM2 (V27A) % inhibition at μM” value at AM2 (V27A) worked out at 7.4%.

As for `NOC12CC3CC(CC(C3)C1)C2` [Compound 42, O-adamantylhydroxylamine], the “AM2 (S31N) % inhibition at 100 uM” value on AM2 (S31N) is listed as 42 (15%). Consider `Cl.NC1C[C@@H]2C[C@@H]3CC1[C@H](C2)C3` (stereo partly drawn) [Compound S1, (2S,3aS,5R)-octahydro-1H-2,5-methanoinden-7-aminium chloride], for which the “AM2 (V27A) % inhibition at μM” value on AM2 (V27A) is recorded as 25.5%.

`NC1CSC2(SC1)C1CC3CC(C1)CC2C3` (centres unmarked) [Compound 45]: at AM2 (S31N), the “AM2 (S31N) % inhibition at 100 uM” value is on record as 45 (0%).

`N=C(N)C12CC3CC(CC(C3)C1)C2` [Compound 44, Adamantane amidine hydrochloride]: the “AM2 (S31N) % inhibition at 100 uM” value at AM2 (S31N) is 44 (31.5%). On the same count and under the same terms, then `OC1(C(F)(F)F)C2CC3CC(C2)CC1C3` (centres unmarked) [Compound 53, 2-trifluoromethyl-2-adamantol], with 53 (14%).
